Measurements taken from patent publication US8115197B2, “Organic semiconductor material, organic semiconductor thin film and organic semiconductor device” (Sony Corporation, priority 2005, dated 2012).

test: dissolution into hexane solution at room temperature; format: physicochemical
Experimental: Also, experiments were carried out in which the polyacene derivative of example 1, the polyacene derivative of example 2, the polyacene derivative of example 3 and the polyacene derivative of example 4 were respectively dissolved into hexane solution at room temperature. […] Also, the polyacene derivative of the inventive example 4 of which number of the substituents is less than that of the polyacene derivative of example 2 by four was dissolved into the hexane solution.

solubility in hexane solution	SMILES
hardly dissolved	CCc1c(CC)c(CC)c2cc3c(CC)c4cc5c(CC)c(C(=O)OC)c(C(=O)OC)c(CC)c5cc4c(CC)c3cc2c1CC [example 2, 2,3-bis methoxycarbonyl-1,4,6,8,9,10,11 13-octaethyl pentacene]
dissolved	CCCCc1c(C(=O)OC)c(C(=O)OC)c(CCCC)c2cc3c(CCCC)c4cc5c(CC)c(CC)c(CC)c(CC)c5cc4c(CCCC)c3cc12 [example 1, 2,3-bis methoxycarbonyl-1,4,6,13-tetrabutyl-8,9,10,11-tetraethyl pentacene]
dissolved	CCCc1c(C(=O)OC)c(C(=O)OC)c(CCC)c2cc3c(CCC)c4cc5c(CC)c(CC)c(CC)c(CC)c5cc4c(CCC)c3cc12 [example 3, 2,3-bis methoxycarbonyl-8,9,10,11-tetra ethyl-1,4,6,13-tetra propyl pentacene]
dissolved	CCCCc1c(C(=O)OC)c(C(=O)OC)c(CCCC)c2cc3c(CCCC)c4cc5ccccc5cc4c(CCCC)c3cc12 [example 4, 2,3-bis methoxycarbonyl-1,4,6,13-tetrabuyl pentacene]
